Experiments:
platelets = details: animals and/or humans; cited from earlier work
[1] = test system: MOLT-4 acute lymphoblastic leukemia cells; test: Cell viability, tetrazolium-based MTS assay, MOLT-4; details: Homo sapiens, MOLT-4, 48 h; read-out: Anti-Cancer Activity EC50 (48 hr), MOLT-4
Procedure: (§1) Acute lymphoblastic leukemia cells (MOLT-4 and RS4;11) were incubated with increasing concentrations of Bcl-xL/Bcl-2 degraders for 48 h. Cell viability was measured by tetrazolium-based MTS assay.

[2] = test system: RS4;11 acute lymphoblastic leukemia cells; test: Cell viability, tetrazolium-based MTS assay, RS4;11; details: Homo sapiens, RS4;11, 48 h, read-out: Anti-Cancer Activity EC50 (48 hr), RS4
Procedure: as §1

[3] = test system: WI-38 irradiation-induced senescent cells (IR-SC); test: Senolytic activity, cell viability (PrestoBlue HS), WI-38 IR-SC; type: cell-based; details: Homo sapiens, 72 h
Procedure: (§2) To induce senescence in WI-38 and HUVEC, cells were subjected to x-ray irradiation at 20 Gray using X-RAD 320 biological irradiator. Following between 10 to 15 days after irradiation, senescence was induced in cells, and irradiation-induced senescent cells (IR-SC) were then used for cell viability and Western blotting tests.
(§3) WI-38 and HUVEC cells were incubated with increasing concentrations of degraders for 72 h. Cell viability was measured using PrestoBlue HS cell viability reagent.

WI-38 NC = test: Senolytic activity, cell viability (PrestoBlue HS), WI-38 NC; type: cell-based; details: Homo sapiens, 72 h
Procedure: as §3

Bcl-xL [4] = target: T1, Bcl-xL (Homo sapiens, UniProt Q07817); test: Bcl-xL protein degradation in Jurkat cells (immunoblot); type: cell-based; details: 16 h
T1 construct: immunoblot after 16 h degrader treatment
Procedure: (§4) Jurkat and Hela cells were incubated with increasing concentrations of test compounds for 16 h. The cells were harvested and lysed in RIPA lysis buffer supplemented with protease and phosphatase inhibitor cocktails. An equal amount of protein (20 μg/lane) was resolved on a pre-cast 4-20% SDS-PAGE gel. Proteins were subsequently transferred to NOVEX PVDF membranes by electrophoresis. The membranes were blocked in blocking buffer (5% non-fat dry milk in TBS-T), and incubated with primary antibodies (at optimized concentrations) overnight at 4° C. After three washings in TBS-T, the membranes were incubated with an appropriate FIRP-conjugated secondary antibody for 1 h at room temperature. After extensive washing for three times, the proteins of interest were detected with ECL western blotting detection reagents and recorded with autoradiography (Pierce Biotech, Rockford, IL, USA). The primary antibodies for Bcl-xL (Cat #2762), Bcl-2 (Cat #2872), Bcl-w (Cat #2724) and β-actin (Cat #4970) were purchased from Cell Signaling Technology. The relative band intensity was measured using ImageJ software and normalized to β-actin.

Bcl-xL [5] = target: T1, Bcl-xL; test: Bcl-xL protein degradation in Hela cells (immunoblot); type: cell-based; details: 16 h
Procedure: as §4

[6] = test system: HUVEC irradiation-induced senescent cells (IR-SC); test: Senolytic activity, cell viability (PrestoBlue HS), HUVEC IR-SC; type: cell-based; details: Homo sapiens, 72 h
Procedure: as §2, §3

HUVEC NC = test: Senolytic activity, cell viability (PrestoBlue HS), HUVEC NC; type: cell-based
Procedure: as §3

T1 sequence (Q07817 whole entry): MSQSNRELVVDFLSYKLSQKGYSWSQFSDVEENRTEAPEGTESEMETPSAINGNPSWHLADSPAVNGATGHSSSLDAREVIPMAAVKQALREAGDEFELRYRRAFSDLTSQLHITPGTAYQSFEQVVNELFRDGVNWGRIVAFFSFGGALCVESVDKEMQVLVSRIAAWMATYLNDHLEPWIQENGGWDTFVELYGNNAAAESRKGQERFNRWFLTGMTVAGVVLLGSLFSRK
T1 sequence (Q96SW2 whole entry partner): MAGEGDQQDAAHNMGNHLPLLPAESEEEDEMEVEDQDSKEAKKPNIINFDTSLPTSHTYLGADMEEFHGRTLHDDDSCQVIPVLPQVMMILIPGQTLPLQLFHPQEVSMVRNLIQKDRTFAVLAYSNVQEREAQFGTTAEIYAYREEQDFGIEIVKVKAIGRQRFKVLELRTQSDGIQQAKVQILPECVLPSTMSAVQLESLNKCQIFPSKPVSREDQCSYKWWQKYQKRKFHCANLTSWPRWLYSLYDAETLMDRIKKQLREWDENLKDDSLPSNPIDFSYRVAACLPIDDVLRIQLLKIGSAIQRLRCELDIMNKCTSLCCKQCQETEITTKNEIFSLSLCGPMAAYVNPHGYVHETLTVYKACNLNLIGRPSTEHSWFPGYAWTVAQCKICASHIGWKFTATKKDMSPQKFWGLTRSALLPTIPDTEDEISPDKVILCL

CN(C)CC[C@H](CSc1ccccc1)Nc1ccc(S(=O)(=O)NC(=O)c2ccc(N3CCN(Cc4ccccc4-c4ccc(Cl)cc4)CC3)cc2)cc1[N+](=O)[O-] [ABT-737]
dose-limiting thrombocytopenia (platelets): dose-limiting thrombocytopenia has been observed

Cc1c(S(C)(=O)=O)c(-c2cc(F)cc(N3CCN(c4ccc(NS(=O)(=O)c5ccc(N[C@H](CCN6CCC(O)CC6)CSc6ccccc6)c(S(=O)(=O)C(F)(F)F)c5)cc4)CC3)c2)c(-c2ccc(Cl)cc2)n1C(C)C [BM-1197]
dose-limiting thrombocytopenia (platelets): dose-limiting thrombocytopenia has been observed

C[C@@]1(CN2CCN(C(=O)CN3CCN(c4ccc5c(c4)CN(C4CCC(=O)NC4=O)C5=O)CC3)CC2)CCC(c2ccc(Cl)cc2)=C(CN2CCN(c3ccc(C(=O)NS(=O)(=O)c4ccc(N[C@H](CCN5CCCOCC5)CSc5ccccc5)c(S(=O)(=O)C(F)(F)F)c4)cc3)CC2)C1 (stereo partly drawn) [Compound 1, N-((4-(((R)-4-(1,4-oxazepan-4-yl)-1-(phenylthio)butan-2-yl)amino)-3-((trifluoromethyl)sulfonyl)phenyl)sulfonyl)-4-(4-(((4R)-4′-chloro-4-((4-(2-(4-(2-(2,6-dioxopiperidin-3-yl)-1-oxoisoindolin-5-yl)piperazin-1-yl)acetyl)piperazin-1-yl)methyl)-4-methyl-3,4,5,6-tetrahydro-[1,1′-biphenyl]-2-yl)methyl)piperazin-1-yl)benzamide]
EC50 [1]: < 1 nM | EC50 [2]: < 1 nM | EC50 [3]: 1 to 10 nM | EC50 (WI-38 NC): > 10000 nM | degradation of Bcl-xL (Bcl-xL [4]): degrade Bcl-xL in a dose-dependent manner | degradation of Bcl-xL (Bcl-xL [5]): degrade Bcl-xL in a dose-dependent manner

C[C@@]1(CN2CCN(C(=O)CN3CCN(CC#Cc4ccc5c(c4)CN(C4CCC(=O)NC4=O)C5=O)CC3)CC2)CCC(c2ccc(Cl)cc2)=C(CN2CCN(c3ccc(C(=O)NS(=O)(=O)c4ccc(N[C@H](CCN5CCCOCC5)CSc5ccccc5)c(S(=O)(=O)C(F)(F)F)c4)cc3)CC2)C1 (stereo partly drawn) [Compound 4, N-((4-(((R)-4-(1,4-oxazepan-4-yl)-1-(phenylthio)butan-2-yl)amino)-3-((trifluoromethyl)sulfonyl)phenyl)sulfonyl)-4-(4-(((4R)-4′-chloro-4-((4-(2-(4-(3-(2-(2,6-dioxopiperidin-3-yl)-1-oxoisoindolin-5-yl)prop-2-yn-1-yl)piperazin-1-yl)acetyl)piperazin-1-yl)methyl)-4-methyl-3,4,5,6-tetrahydro-[1,1′-biphenyl]-2-yl)methyl)piperazin-1-yl)benzamide]
EC50 [1]: < 1 nM | EC50 [2]: < 1 nM | EC50 [3]: 1 to 10 nM | EC50 (WI-38 NC): > 10000 nM | degradation of Bcl-xL (Bcl-xL [4]): degrade Bcl-xL in a dose-dependent manner | degradation of Bcl-xL (Bcl-xL [5]): degrade Bcl-xL in a dose-dependent manner

C[C@@]1(CN2CCC(CN3CCN(c4ccc5c(c4)CN(C4CCC(=O)NC4=O)C5=O)CC3)CC2)CCC(c2ccc(Cl)cc2)=C(CN2CCN(c3ccc(C(=O)NS(=O)(=O)c4ccc(N[C@H](CCN5CCCOCC5)CSc5ccccc5)c(S(=O)(=O)C(F)(F)F)c4)cc3)CC2)C1 (stereo partly drawn) [Compound 11, N-((4-(((R)-4-(1,4-oxazepan-4-yl)-1-(phenylthio)butan-2-yl)amino)-3-((trifluoromethyl)sulfonyl)phenyl)sulfonyl)-4-(4-(((4R)-4′-chloro-4-((4-((4-(2-(2,6-dioxopiperidin-3-yl)-1-oxoisoindolin-5-yl)piperazin-1-yl)methyl)piperidin-1-yl)methyl)-4-methyl-3,4,5,6-tetrahydro-[1,1′-biphenyl]-2-yl)methyl)piperazin-1-yl)benzamide]
EC50 [1]: < 1 nM | EC50 [2]: < 1 nM | EC50 [6]: < 1 nM | EC50 [3]: 1 to 10 nM | EC50 (WI-38 NC): > 10000 nM | degradation of Bcl-xL (Bcl-xL [4]): degrade Bcl-xL in a dose-dependent manner | degradation of Bcl-xL (Bcl-xL [5]): degrade Bcl-xL in a dose-dependent manner

C[C@@]1(CN2CCC(CN3CCC(CN4CCN(c5ccc6c(c5)CN(C5CCC(=O)NC5=O)C6=O)CC4)CC3)CC2)CCC(c2ccc(Cl)cc2)=C(CN2CCN(c3ccc(C(=O)NS(=O)(=O)c4ccc(N[C@H](CCN5CCCOCC5)CSc5ccccc5)c(S(=O)(=O)C(F)(F)F)c4)cc3)CC2)C1 (stereo partly drawn) [Compound 12, N-((4-(((R)-4-(1,4-oxazepan-4-yl)-1-(phenylthio)butan-2-yl)amino)-3-((trifluoromethyl)sulfonyl)phenyl)sulfonyl)-4-(4-(((4R)-4′-chloro-4-((4-((4-((4-(2-(2,6-dioxopiperidin-3-yl)-1-oxoisoindolin-5-yl)piperazin-1-yl)methyl)piperidin-1-yl)methyl)piperidin-1-yl)methyl)-4-methyl-3,4,5,6-tetrahydro-[1,1′-biphenyl]-2-yl)methyl)piperazin-1-yl)benzamide]
EC50 [1]: < 1 nM | EC50 [2]: < 1 nM | EC50 [3]: 10 to 100 nM | EC50 (WI-38 NC): > 10000 nM | degradation of Bcl-xL (Bcl-xL [4]): degrade Bcl-xL in a dose-dependent manner | degradation of Bcl-xL (Bcl-xL [5]): degrade Bcl-xL in a dose-dependent manner

C[C@@]1(CN2CCC(c3ccc4c(c3)CN(C3CCC(=O)NC3=O)C4=O)CC2)CCC(c2ccc(Cl)cc2)=C(CN2CCN(c3ccc(C(=O)NS(=O)(=O)c4ccc(N[C@H](CCN5CCCOCC5)CSc5ccccc5)c(S(=O)(=O)C(F)(F)F)c4)cc3)CC2)C1 (stereo partly drawn) [Compound 128, N-((4-(((R)-4-(1,4-oxazepan-4-yl)-1-(phenylthio)butan-2-yl)amino)-3-((trifluoromethyl)sulfonyl)phenyl)sulfonyl)-4-(4-(((4R)-4′-chloro-4-((4-(2-(2,6-dioxopiperidin-3-yl)-1-oxoisoindolin-5-yl)piperidin-1-yl)methyl)-4-methyl-3,4,5,6-tetrahydro-[1,1′-biphenyl]-2-yl)methyl)piperazin-1-yl)benzamide]
EC50 [1]: < 1 nM | EC50 [2]: < 1 nM | EC50 [6]: < 1 nM | Senolytic Activity EC50 (72 hr), HUVEC NC (HUVEC NC): ++ (100-10 μM) | EC50 [3]: 1 to 10 nM | degradation of Bcl-xL (Bcl-xL [4]): degrade Bcl-xL in a dose-dependent manner | degradation of Bcl-xL (Bcl-xL [5]): degrade Bcl-xL in a dose-dependent manner

C[C@@]1(CN2CCC(CN3CCN(c4ccc5c(c4)C(=O)N(C4CCC(=O)NC4=O)C5)CC3)CC2)CCC(c2ccc(Cl)cc2)=C(CN2CCN(c3ccc(C(=O)NS(=O)(=O)c4ccc(N[C@H](CCN5CCCOCC5)CSc5ccccc5)c(S(=O)(=O)C(F)(F)F)c4)cc3)CC2)C1 (stereo partly drawn) [Compound 134]
EC50 [1]: < 1 nM | EC50 [2]: < 1 nM | EC50 [6]: < 1 nM | Senolytic Activity EC50 (72 hr), HUVEC NC (HUVEC NC): ++ (100-10 μM) | EC50 [3]: 1 to 10 nM

C[C@@]1(CN2CCCN(c3ccc4c(c3)CN(C3CCC(=O)NC3=O)C4=O)CC2)CCC(c2ccc(Cl)cc2)=C(CN2CCN(c3ccc(C(=O)NS(=O)(=O)c4ccc(N[C@H](CCN5CCCOCC5)CSc5ccccc5)c(S(=O)(=O)C(F)(F)F)c4)cc3)CC2)C1 (stereo partly drawn) [Compound 135, N-((4-(((R)-4-(1,4-oxazepan-4-yl)-1-(phenylthio)butan-2-yl)amino)-3-((trifluoromethyl)sulfonyl)phenyl)sulfonyl)-4-(4-(((4R)-4′-chloro-4-((4-(2-(2,6-dioxopiperidin-3-yl)-1-oxoisoindolin-5-yl)-1,4-diazepan-1-yl)methyl)-4-methyl-3,4,5,6-tetrahydro-[1,1′-biphenyl]-2-yl)methyl)piperazin-1-yl)benzamide]
EC50 [1]: < 1 nM | EC50 [2]: < 1 nM | EC50 [6]: < 1 nM | Senolytic Activity EC50 (72 hr), HUVEC NC (HUVEC NC): ++ (100-10 μM) | EC50 [3]: 10 to 100 nM

CN(C)CC#Cc1ccc(OCCCc2sc(N3CCc4cccc(C(=O)Nc5nc6ccccc6s5)c4C3)nc2C(=O)O)c(F)c1 [Compound A-1155463]
dose-limiting thrombocytopenia (platelets): dose-limiting thrombocytopenia has been observed

— patent US20260355323A1, “CEREBLON-RECRUITING BCL-XL/BCL-2 DUAL DEGRADERS” (University of Florida Research Foundation, Incorporated, priority 2022, published 2026)
